From US6872805B2 (Bristol-Myers Squibb Company, priority 2000, dated 2005)
Where two headings read alike, the source gives them in different places.

Key:
[1] = target: HCV NS3/4A protease complex (Hepatitis C virus genotype 1a, UniProt P27958, C1454S/C1711G); experiment: Recombinant HCV NS3/4A protease complex FRET peptide assay (strain not stated); assay type: biochemical; settings: IC50, NS3/4A protease enzyme assay, strain not stated; activity ranges
[2] = tested on: HCV replicon in Huh7 cells; experiment: HCV replicon cell-based assay; design: species or system HCV strain 1B; settings: Hepatitis C virus, Huh-7, 96 h
How it was run: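 Genotype 1b subgenomic replicon Huh7 cells exposed to compound 4 days at 37° C in 4% FCS, 0.5% DMSO medium. EC50 from TaqMan RT-PCR of HCV RNA, normalized to total RNA by RiboGreen; CC50 from alamar Blue fluorescence after 4 h.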

[3] = HCV replicon, Huh7 cells, 4 days, activity ranges, read-out: EC50

Sequence of HCV NS3/4A protease complex (P27958 1027-1711, stated change not applied): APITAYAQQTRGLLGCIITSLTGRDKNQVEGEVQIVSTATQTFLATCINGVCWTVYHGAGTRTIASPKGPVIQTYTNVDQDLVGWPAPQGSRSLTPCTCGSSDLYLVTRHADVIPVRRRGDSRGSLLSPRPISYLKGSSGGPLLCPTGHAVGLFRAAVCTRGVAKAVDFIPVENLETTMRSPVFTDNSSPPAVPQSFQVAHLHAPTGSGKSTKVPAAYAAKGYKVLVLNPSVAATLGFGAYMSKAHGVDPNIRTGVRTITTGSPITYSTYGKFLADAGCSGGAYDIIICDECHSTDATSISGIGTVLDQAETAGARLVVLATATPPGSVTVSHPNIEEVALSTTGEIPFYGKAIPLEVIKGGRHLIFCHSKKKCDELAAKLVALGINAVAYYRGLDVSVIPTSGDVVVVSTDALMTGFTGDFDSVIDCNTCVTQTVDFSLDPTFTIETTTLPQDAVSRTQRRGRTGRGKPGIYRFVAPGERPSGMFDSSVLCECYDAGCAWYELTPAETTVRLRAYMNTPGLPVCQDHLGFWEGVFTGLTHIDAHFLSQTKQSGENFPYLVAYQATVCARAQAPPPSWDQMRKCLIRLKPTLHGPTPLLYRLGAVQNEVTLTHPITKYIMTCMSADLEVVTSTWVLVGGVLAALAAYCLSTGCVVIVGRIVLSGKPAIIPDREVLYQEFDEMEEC
Sequence of HCV NS3/4A protease complex (P27958 1027-1711, stated change not applied): as above

Compound | IC50 [1] [nM] | EC50 [2, 3] [nM] | EC50 [2] [nM]
C=C[C@@H]1C[C@]1(NC(=O)C1C[C@@H](Oc2cc(-c3ccccc3)nc3cc(OC)ccc23)CN1C(=O)[C@@H](NC(=O)c1ccco1)C(C)(C)C)C(=O)NS(=O)(=O)C1CC1 (stereo partly drawn) [Compound 110, 1-{2S-[(furan-2-carbonyl)-amino]-3,3-dimethyl-butyryl}-4R-(7-methoxy-2-phenyl-quinolin-4-yloxy)-pyrrolidine-2S-carboxylic acid (1R-cyclopropanesulfonylaminocarbonyl-2S-vinyl-cyclopropyl)-amide] | < 50 | < 500 | 
C=C[C@@H]1C[C@]1(NC(=O)C1C[C@@H](Oc2cc(-c3ccccc3)nc3cc(OC)ccc23)CN1C(=O)[C@@H](NC(=O)C1(O)CC1)C(C)(C)C)C(=O)NS(=O)(=O)C1CC1 (stereo partly drawn) [Compound 111, 1-{2S-[(1-hydroxy-cyclopropanecarbonyl)-amino]-3,3-dimethyl-butyryl}-4R-(7-methoxy-2-phenyl-quinolin-4-yloxy)pyrrolidine-2S-carboxylic acid (1R-cyclopropanesulfonylaminocarbonyl-2S-vinylcyclopropyl)amide] | < 50 | < 5000 | 
C=C[C@@H]1C[C@]1(NC(=O)C1C[C@@H](Oc2cc(-c3ccccc3)nc3cc(OC)ccc23)CN1C(=O)[C@@H](NC(=O)CF)C(C)(C)C)C(=O)NS(=O)(=O)C1CC1 (stereo partly drawn) [Compound 112, 1-[2S-(2-Fluoro-acetylamino)-3,3-dimethyl-butyryl]-4R-(7-methoxy-2-phenyl-quinolin-4-yloxy)-pyrrolidine-2S-carboxylic acid (1R-cyclopropanesulfonylaminocarbonyl-2S-vinyl-cyclopropyl)-amide] | < 50 |  | < 50
C=C[C@@H]1C[C@]1(NC(=O)C1CC(Oc2cc(-c3ccccc3)nc3cc(OC)ccc23)CN1C(=O)[C@@H](NC(=O)OC)C(C)(C)C)C(=O)NS(=O)(=O)C1CC1 (stereo partly drawn) [Compound 113, {1S-[2S-(1R-cyclopropanesulfonylaminocarbonyl-2S-vinyl-cyclopropylcarbamoyl)-4R-(7-methoxy-2-phenyl-quinolin-4-yloxy)-pyrrolidine-1-carbonyl]-2,2-dimethyl-propyl}carbamic acid methyl ester] | < 50 | < 50 | 
C=C[C@@H]1C[C@]1(NC(=O)C1CC(Oc2cc(-c3ccccc3)nc3cc(OC)ccc23)CN1C(=O)[C@@H](NC(=O)OCc1ccccc1)C(C)(C)C)C(=O)NS(=O)(=O)C1CC1 (stereo partly drawn) [Compound 114, {1S-[2S-(1R-cyclopropanesulfonylaminocarbonyl-2S-vinyl-cyclopropylcarbamoyl)-4R-(7-methoxy-2-phenyl-quinolin-4-yloxy)-pyrrolidine-1-carbonyl]-2,2-dimethyl-propyl}-carbamic acid benzyl ester] | < 50 | < 50 | 
C=C[C@@H]1C[C@]1(NC(=O)C1CC(Oc2cc(-c3ccccc3)nc3cc(OC)ccc23)CN1C(=O)[C@@H](NC(=O)OCC)C(C)(C)C)C(=O)NS(=O)(=O)C1CC1 (stereo partly drawn) [Compound 115, {1S-[2S-(1R-cyclopropanesulfonylaminocarbonyl-2S-vinyl-cyclopropylcarbamoyl)-4R-(7-methoxy-2-phenyl-quinolin-4-yloxy)-pyrrolidine-1-carbonyl]-2,2-dimethyl-propyl}-carbamic acid ethyl ester] | < 50 | < 50 | 
C=C[C@@H]1C[C@]1(NC(=O)C1CC(Oc2cc(-c3ccccc3)nc3cc(OC)ccc23)CN1C(=O)[C@@H](NC(=O)Oc1ccccc1)C(C)(C)C)C(=O)NS(=O)(=O)C1CC1 (stereo partly drawn) [Compound 116, {1S-[2S-(1R-cyclopropanesulfonylaminocarbonyl-2S-vinyl-cyclopropylcarbamoyl)-4R-(7-methoxy-2-phenyl-quinolin-4-yloxy)-pyrrolidine-1-carbonyl]-2,2-dimethyl-propyl}-carbamic acid phenyl ester] | < 50 | < 50 | 
C=C[C@@H]1C[C@]1(NC(=O)C1CC(Oc2cc(-c3ccccc3)nc3cc(OC)ccc23)CN1C(=O)[C@@H](NS(C)(=O)=O)C(C)(C)C)C(=O)NS(=O)(=O)C1CC1 (stereo partly drawn) [Compound 117, 1-(2S-methanesulfonylamino-3,3-dimethyl-butyryl)-4R-(7-methoxy-2-phenyl-quinolin-4-yloxy)-pyrrolidine-2S-carboxylic acid (1R-cyclopropanesulfonylamino-carbonyl-2S-vinyl-cyclopropyl)-amide] | < 50 | < 500 | 
C=C[C@@H]1C[C@]1(NC(=O)C1CC(Oc2cc(-c3ccccc3)nc3cc(OC)ccc23)CN1C(=O)[C@@H](NS(=O)(=O)C1CC1)C(C)(C)C)C(=O)NS(=O)(=O)C1CC1 (stereo partly drawn) [Compound 118, 1-(2S-cyclopropanesulfonylamino-3,3-dimethyl-butyryl)-4R-(7-methoxy-2-phenyl-quinolin-4-yloxy)-pyrrolidine-2S-carboxylic acid (1R-cyclopropanesulfonylamino-carbonyl-2S-vinyl-cyclopropyl)-amide] | < 50 | < 500 | 
C=C[C@@H]1C[C@]1(NC(=O)C1CC(Oc2cc(-c3ccccc3)nc3cc(OC)ccc23)CN1C(=O)[C@@H](NC(=O)CCl)C(C)(C)C)C(=O)NS(=O)(=O)C1CC1 (stereo partly drawn) [Compound 120, 1-[2S-(2-chloro-acetylamino)-3,3-dimethyl-butyryl]-4R-(7-methoxy-2-phenyl-quinolin-4-yloxy)-pyrrolidine-2S-carboxylic acid (1R-cyclopropanesulfonylaminocarbonyl-2S-vinylcyclopropyl)-amide] | < 50 | < 50 | 
C=C[C@@H]1C[C@]1(NC(=O)C1CC(Oc2cc(-c3ccccc3)nc3cc(OC)ccc23)CN1C(=O)[C@@H](NC(=O)C(=O)OC)C(C)(C)C)C(=O)NS(=O)(=O)C1CC1 (stereo partly drawn) [Compound 121, N-{1S-[2S-(1R-cyclopropanesulfonylaminocarbonyl-2S-vinyl-cyclopropylcarbamoyl)-4R-(7-methoxy-2-phenyl-quinolin-4-yloxy)-pyrrolidine-1-carbonyl]-2,2-dimethyl-propyl}-oxalamic acid methyl ester] | < 50 | < 500 | 
C=C[C@@H]1C[C@]1(NC(=O)C1CC(Oc2cc(-c3ccccc3)nc3cc(OC)ccc23)CN1C(=O)[C@@H](NC(=O)OCCF)C(C)(C)C)C(=O)NS(=O)(=O)C1CC1 (stereo partly drawn) [Compound 122, {1S-[2S-(1R-cyclopropanesulfonylaminocarbonyl-2S-vinyl-cyclopropylcarbamoyl)-4R-(7-methoxy-2-phenyl-quinolin-4-yloxy)-pyrrolidine-1-carbonyl]-2,2-dimethyl-propyl}-carbamic acid 2-fluoroethyl ester] | < 50 | < 50 | 
C=COC(=O)N[C@H](C(=O)N1C[C@H](Oc2cc(-c3ccccc3)nc3cc(OC)ccc23)CC1C(=O)N[C@]1(C(=O)NS(=O)(=O)C2CC2)C[C@H]1C=C)C(C)(C)C (stereo partly drawn) [Compound 123, {1S-[2S-(1R-cyclopropanesulfonylaminocarbonyl-2S-vinyl-cyclopropylcarbamoyl)-4R-(7-methoxy-2-phenyl-quinolin-4-yloxy)-pyrrolidine-1-carbonyl]-2,2-dimethyl-propyl}-carbamic acid vinyl ester] | < 50 | < 50 | 
C#CCOC(=O)N[C@H](C(=O)N1C[C@H](Oc2cc(-c3ccccc3)nc3cc(OC)ccc23)CC1C(=O)N[C@]1(C(=O)NS(=O)(=O)C2CC2)C[C@H]1C=C)C(C)(C)C (stereo partly drawn) [Compound 124, {1S-[2S-(1R-cyclopropanesulfonylaminocarbonyl-2S-vinyl-cyclopropylcarbamoyl)-4R-(7-methoxy-2-phenyl-quinolin-4-yloxy)-pyrrolidine-1-carbonyl]-2,2-dimethyl-propyl}-carbamic acid prop-2-ynyl ester] | < 50 | < 50 | 
C=C[C@@H]1C[C@]1(NC(=O)C1C[C@@H](Oc2cc(-c3ccccc3)nc3cc(OC)ccc23)CN1C(=O)[C@@H](NC(=O)OCC(C)(C)C)C(C)(C)C)C(=O)NS(=O)(=O)C1CC1 (stereo partly drawn) [Compound 125, {1S-[2S-(1R-cyclopropanesulfonylaminocarbonyl-2S-vinyl-cyclopropylcarbamoyl)-4R-(7-methoxy-2-phenyl-quinolin-4-yloxy)-pyrrolidine-1-carbonyl]-2,2-dimethyl-propyl}-carbamic acid 2,2-dimethyl-propyl ester] | < 50 | < 50 | 
C=CCOC(=O)N[C@H](C(=O)N1C[C@H](Oc2cc(-c3ccccc3)nc3cc(OC)ccc23)CC1C(=O)N[C@]1(C(=O)NS(=O)(=O)C2CC2)C[C@H]1C=C)C(C)(C)C (stereo partly drawn) [Compound 126, {1S-[2S-(1R-cyclopropanesulfonylaminocarbonyl-2S-vinyl-cyclopropylcarbamoyl)-4R-(7-methoxy-2-phenyl-quinolin-4-yloxy)-pyrrolidine-1-carbonyl]-2,2-dimethyl-propyl}-carbamic acid allyl ester] | < 50 | < 50 | 
C=C[C@@H]1C[C@]1(NC(=O)C1C[C@@H](Oc2cc(-c3ccccc3)nc3cc(OC)ccc23)CN1C(=O)[C@@H](NC(=O)OCCCC)C(C)(C)C)C(=O)NS(=O)(=O)C1CC1 (stereo partly drawn) [Compound 127, {1S-[2S-(1R-cyclopropanesulfonylaminocarbonyl-2S-vinyl-cyclopropylcarbamoyl)-4R-(7-methoxy-2-phenyl-quinolin-4-yloxy)-pyrrolidine-1-carbonyl]-2,2-dimethyl-propyl}-carbamic acid butyl ester] | < 50 | < 50 | 
C=C[C@@H]1C[C@]1(NC(=O)C1C[C@@H](Oc2cc(-c3ccccc3)nc3cc(OC)ccc23)CN1C(=O)[C@@H](Nc1ccccc1[N+](=O)[O-])C(C)(C)C)C(=O)NS(=O)(=O)C1CC1 (stereo partly drawn) [Compound 128, 1-[3,3-dimethyl-2S-(2-nitrophenylamino)-butyryl]-4R-(7-methoxy-2-phenyl-quinolin-4-yloxy)-pyrrolidine-2S-carboxylic acid (1R-cyclopropanesulfonyl-aminocarbonyl-2S-vinylcyclopropyl)amide] | < 5000 | < 5000 | 
